In patent publication US20100234314A1, “IDARUBICIN FOR THE TREATMENT OF LYMPHOMA IN A DOG” (priority 2007, published 2010):
pIC50: −log10 of the molar value. Read-outs that look alike come from different tables or passages of the source.

Tests used:
[1] = tested on: canine lymphoma cell lines; test: Anti-proliferation, canine lymphoma cell lines; assay type: cell-based; conditions: summary
From the text: (§1) (2) Ex vivo canine lymphoma nodal tissue. […] (3) In vitro Anti-Proliferation Assay Method.
(§2) (Mean Drug Treatment OD−Mean media blank OD)×100=% Control Proliferation
(§3) (Mean Untreated OD−Mean media blank OD)

[2] = Oral bioavailability in dogs, effect of feeding; assay type: in vivo; conditions: dog
[3] = tested on: 3132 canine lymphoma cell line (B-cell LSA line); test: In vitro anti-proliferation assay (MTS), 3132 cell line; assay type: cell-based; conditions: Canis lupus familiaris; 3132, B-cell LSA line
From the text: as §1, §2, §3

[4] = tested on: ex-vivo derived canine lymphoma cells (nodal tissue); test: In vitro anti-proliferation assay (MTS), ex vivo canine lymphoma nodal tissue; conditions: for Inhibition of the proliferation of canine lymphoma nodal tissues: summary; for pIC50: read-out: Anti-proliferation IC50
From the text: The study utilized an in vitro assay run with ex-vivo derived canine lymphoma cells and with established cell lines maintained over many passages using standard tissue culture techniques. Nodal tissues were obtained from canine lymphoma patients at the MSU Veterinary Clinic.
(2) Ex vivo canine lymphoma nodal tissue. Malignant lymph nodes were excised by veterinary staff at Michigan State University (MSU) Veterinary College, placed into transport media (Advanced RPMI 1640 complete medium supplemented with 10% Fetal Bovine Serum (FBS), 100 U/mL penicillin, 100 ug/mL streptomycin and 0.25 ug/mL Amphotercin B (Invitrogen/Gibco®). Nodes were processed within 24 hours of removal by mincing into tiny pieces and passing through a tissue sieve. Cell suspensions were spun at 200×g, supernatant was removed, and the cell pellet was resuspended in NH4Cl (0.15M) for 10 minutes at room temperature. The cell suspension was pelleted by centrifugation; the NH4Cl was removed and washed once with Hanks Balanced Salt Solution (HBSS), followed by re-suspension in Proliferation Medium (Advanced RPMI complete, 1% FBS, 50 nM 2-Mercaptoethanol, 100 U/mL penicillin, 100 ug/mL streptomycin and 0.25 ug/mL Amphotercin B). The cell suspension was then passed through a 100 μm nylon cell strainer (BD-Falcon) and counted using a hemacytometer. Cells were cultured in either Proliferation Medium alone, Proliferation Medium supplemented with 0.005% Pansorbin® (Heat inactivated, formalin-fixed Staphylococcus Aureus cells (SAC), Calbiochem), and 10 ng/mL canine IL-2 (R&D Systems), or Proliferation Medium supplemented with 125 ng/mL concavalin A (Sigma) and 125 ng/mL lipopolysaccamide (LPS; Calbiochem). (3) In vitro Anti-Proliferation Assay Method. Cells cultured in medium described above were plated in 96-well Costar plates (Corning) at a density of 1×10^3 cells/well (lymphoma cell lines) or 2×10^5 cells/well (lymph node cells) and exposed to various concentrations of test compounds for up to 5 days at 37° C. in a humidified incubator with 5% CO2. Effects on proliferation were determined using the CellTiter 96® Aqueous Non-Radioactive Cell Proliferation Assay (Promega) according to manufacturer's instructions. In general, proliferation was indirectly measured using a soluble tetrazolium salt (MTS) and an electron coupling agent. MTS bioreduction into a formazan product soluble in tissue culture medium was monitored by absorbance at 490 nm on a Spectramax plate reader using Softmax Pro 4.6 software (Molecular Devices). […] (4) Data Analysis: For nodal tissue, data were handled in the following manner through Prism 4.0 (Graphpad Software). Mean values from raw optical density values (OD) were calculated for the Un-stimulated, Simulated and all Drug Treatment (triplicates) and used in the following formula:
(Mean Drug Treatment OD−Mean Un-stim OD)×100=% Control Proliferation
(Mean Stim OD−Mean Un-stim OD)
Once calculated, these values for each drug concentration (or standard) were graphed and an IC50 calculated by a point to point analysis. Percent control values were not allowed to exceed 100% or fall below 0% for analysis of IC50 values.

[5] = tested on: CL-1 canine lymphoma cell line (T-cell LSA line); test: In vitro anti-proliferation assay (MTS), CL-1 cell line; assay type: cell-based; conditions: Canis lupus familiaris; CL-1, T-cell LSA line
From the text: as §1, §2, §3

[6] = MSU LN 1, chemotherapy resistant B-cell LSA, stimulant SAC + IL-2
[7] = MSU LN 1 ID618801, chemotherapy resistant B-cell LSA, stimulant LPS + ConA
[8] = MSU LN 6, chemotherapy resistant T-cell LSA, stimulant SAC + IL-2
[9] = MSU LN 6 ID401557, chemotherapy resistant T-cell LSA, stimulant LPS + ConA
[10] = MSU LN 7 ID663780, chemotherapy resistant T-cell LSA, stimulant LPS + ConA
[11] = MSU LN 8, de novo T-cell lymphoma, stimulant SAC + IL-2
[12] = MSU LN 8 ID668165, de novo T-cell lymphoma, stimulant LPS + ConA
[13] = MSU LN 10 ID401979, chemotherapy resistant B-cell LSA, stimulant LPS + ConA

| pIC50 [3] | pIC50 [4, 6] | pIC50 [4, 7] | pIC50 [4, 8] | pIC50 [4, 9] | pIC50 [4, 10] | pIC50 [4, 11] | pIC50 [4, 12] | pIC50 [4, 13] | pIC50 ([4]; MSU LN 11 ID671795, de novo B-cell LSA, stimulant LPS + ConA) | pIC50 ([4]; MSU LN 14 ID403527, de novo T-cell LSA, stimulant Con A) | pIC50 [5] | SMILES | Inhibition of the proliferation of canine lymphoma cell lines [1] | Oral bioavailability, effect of feeding [2] | Potency and cytotoxicity compared with doxorubicin ([4]; all nodal and cell line lymphomas regardless of B or T-cell lineage) | Inhibition of proliferation compared with doxorubicin ([4]; all nodal tissue from dogs diagnosed with chemotherapy resistant lymphomas) | Inhibition of the proliferation of canine lymphoma nodal tissues [4] |
| --- | --- | --- | --- | --- | --- | --- | --- | --- | --- | --- | --- | --- | --- | --- | --- | --- | --- |
| 8.57 | 8.12 | 8.12 | 8.60 | 8.52 | 8.60 | 8.52 | 8.40 | 7.25 | 8.40 | 7.96 | 8.72 | CC(=O)[C@]1(O)Cc2c(O)c3c(c(O)c2[C@@H](O[C@H]2C[C@H](N)[C@H](O)[C@H](C)O2)C1)C(=O)c1ccccc1C3=O [Idarubicin, idarubicin] | inhibited | not adversely affected by feeding | more potent and cytotoxic than doxorubicin | more effective | dose dependent inhibition |
| – | 7.96 | 7.26 | 7.89 | 7.55 | 8.00 | 8.15 | 8.05 | < 7.00 | – | – | 8.37 | COc1cccc2c1C(=O)c1c(O)c3c(c(O)c1C2=O)C[C@@](O)(C(=O)CO)C[C@@H]3O[C@H]1C[C@H](N)[C@H](O)[C@H](C)O1 [Doxorubicin, doxorubicin] | inhibited | – | – | – | dose dependent inhibition |
